# In patent US10160747B2, “Compounds and methods for kinase modulation, and indications therefor” (Plexxikon Inc., priority 2016, dated 2018):
# Changes are numbered by the printed parent chain. pIC50: −log10 of the molar value.
# Tests used:
# BaF3-FLT3-ITD-F691L = biological target: T1, BaF3-FLT3-ITD-F691L (Homo sapiens, UniProt P36888, F691L, cells depend on it, form not given); assay: Cell Assay CS0047: BaF3-FLT3-ITD-F691L CTB; type: cell-based, murine; settings: three day growth assay in the absence of IL3; read-out: Cell Assay: CS0047: BaF3-FLT3-ITD-F691L CTB:IC50
# T1 sequence (P36888 with tags, fused parts or gaps INS600HVDFREYEYD/F691L): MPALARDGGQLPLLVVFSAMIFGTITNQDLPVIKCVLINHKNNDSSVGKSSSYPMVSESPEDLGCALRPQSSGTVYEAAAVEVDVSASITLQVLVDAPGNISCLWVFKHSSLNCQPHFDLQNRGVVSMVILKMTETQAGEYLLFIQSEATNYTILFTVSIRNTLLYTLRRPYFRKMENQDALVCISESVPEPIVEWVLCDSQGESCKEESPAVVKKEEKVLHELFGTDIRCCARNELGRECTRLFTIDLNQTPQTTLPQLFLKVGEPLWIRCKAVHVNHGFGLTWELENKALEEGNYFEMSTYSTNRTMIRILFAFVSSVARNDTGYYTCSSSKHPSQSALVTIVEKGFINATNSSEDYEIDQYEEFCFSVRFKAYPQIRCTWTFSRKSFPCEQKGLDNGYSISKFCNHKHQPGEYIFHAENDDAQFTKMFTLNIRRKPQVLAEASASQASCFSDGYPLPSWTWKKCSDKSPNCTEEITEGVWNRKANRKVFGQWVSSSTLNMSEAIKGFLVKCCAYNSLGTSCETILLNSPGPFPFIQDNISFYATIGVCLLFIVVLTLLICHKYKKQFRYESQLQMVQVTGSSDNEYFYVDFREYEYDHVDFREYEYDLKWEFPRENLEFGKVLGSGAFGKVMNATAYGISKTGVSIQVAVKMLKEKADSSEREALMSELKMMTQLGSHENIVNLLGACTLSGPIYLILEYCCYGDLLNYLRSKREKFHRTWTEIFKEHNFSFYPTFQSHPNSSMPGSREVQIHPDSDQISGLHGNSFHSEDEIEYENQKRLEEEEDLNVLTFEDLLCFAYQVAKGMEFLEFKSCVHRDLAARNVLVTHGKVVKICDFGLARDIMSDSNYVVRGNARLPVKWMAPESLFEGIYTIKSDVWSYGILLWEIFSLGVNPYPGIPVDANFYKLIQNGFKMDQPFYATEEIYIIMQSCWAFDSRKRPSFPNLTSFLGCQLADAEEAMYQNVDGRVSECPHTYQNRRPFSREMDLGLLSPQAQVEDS
# Text: (§1) The BaF3 assays as developed used to generate the data in Tables 7 and 8 are identical and differ only in minor details in regards to vector design, not biological function. Both introduce the FLT3 gene with MV4-11 based ITD duplications and resistance mutations from an exogenous promoter (MSCV and CMV respectively) in the exact same cell line.
# (§2) As a result of the expressed FLT3 protein, the IL3 factor dependent BaF3 cell clones become IL3-factor independent.
# (§3) The compounds in Tables 7 and 8 were tested in an identical fashion by incubating such clones in with increasing concentrations. Inhibition of the FLT3 activity by an inhibitor results in factor dependency, which in the absence of IL3 results in cell death in the three day growth assays.
# BaF3-FLT3-ITD-D835V = biological target: T2, BaF3-FLT3-ITD-D835V (Homo sapiens, UniProt P36888, D835V, cells depend on it, form not given); assay: Cell Assay CS0048: BaF3-FLT3-ITD-D835V CTB; type: cell-based, murine; settings: three day growth assay in the absence of IL3; read-out: Cell Assay: CS0048: BaF3-FLT3-ITD-D835V CTB:IC50
# T2 sequence (P36888 with tags, fused parts or gaps INS600HVDFREYEYD/D835V): T1 sequence (P36888 with tags, fused parts or gaps INS600HVDFREYEYD/F691L) with L701F, D845V
# Text: as §1, §2, §3
# FLT3-ITD = biological target: T3, FLT3-ITD (Homo sapiens, UniProt P36888); assay: FLT3-ITD recombinant enzyme kinase assay (AlphaScreen); type: biochemical; settings: 8 pt; read-out: FLT3_ITD 8 pt: IC50
# T3 sequence (P36888 1-993): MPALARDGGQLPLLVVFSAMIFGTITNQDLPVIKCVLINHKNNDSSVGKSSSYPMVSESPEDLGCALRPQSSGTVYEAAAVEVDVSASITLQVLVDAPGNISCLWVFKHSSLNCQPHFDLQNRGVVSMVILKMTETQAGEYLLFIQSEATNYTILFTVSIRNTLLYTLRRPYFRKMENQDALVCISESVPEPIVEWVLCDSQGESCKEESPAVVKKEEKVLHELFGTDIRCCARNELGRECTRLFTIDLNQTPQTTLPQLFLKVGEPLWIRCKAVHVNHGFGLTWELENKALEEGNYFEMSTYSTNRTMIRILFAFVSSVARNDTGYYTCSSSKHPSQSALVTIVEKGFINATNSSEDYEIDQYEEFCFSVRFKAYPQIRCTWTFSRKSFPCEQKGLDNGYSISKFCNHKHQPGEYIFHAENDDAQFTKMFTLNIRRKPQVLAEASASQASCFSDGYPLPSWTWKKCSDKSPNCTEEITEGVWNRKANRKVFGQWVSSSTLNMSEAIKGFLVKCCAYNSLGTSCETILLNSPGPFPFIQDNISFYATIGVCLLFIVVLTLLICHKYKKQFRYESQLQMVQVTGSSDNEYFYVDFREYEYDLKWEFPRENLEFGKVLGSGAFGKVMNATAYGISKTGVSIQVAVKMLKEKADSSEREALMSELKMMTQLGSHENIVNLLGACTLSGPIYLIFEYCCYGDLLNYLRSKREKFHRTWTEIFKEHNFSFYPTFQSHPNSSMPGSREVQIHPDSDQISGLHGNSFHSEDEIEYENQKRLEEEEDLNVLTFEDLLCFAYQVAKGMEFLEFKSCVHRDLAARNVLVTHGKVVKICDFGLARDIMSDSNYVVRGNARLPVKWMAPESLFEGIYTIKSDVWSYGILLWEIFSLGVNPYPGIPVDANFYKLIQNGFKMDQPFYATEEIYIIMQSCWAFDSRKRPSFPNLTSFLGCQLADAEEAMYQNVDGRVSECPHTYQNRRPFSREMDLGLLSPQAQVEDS
# Protocol: (§4) In order to determine the effect of compounds on FLT3 catalytic activity, kinase assays using recombinant enzymes and AlphaScreen® technology have been established. The catalytic activity of c-kit activity was also measured to determine selectivity of the compounds. When the kinases are catalytically active, they phosphorylate a biotinylated peptide substrate on tyrosine residues. Using AlphaScreen® technology, the ability of the compounds to affect the catalytic activity of the kinases can be measured quantitatively. The peptide substrate is immobilized by the AlphaScreen® Streptavidin Donor beads and, upon phosphorylation by a tyrosine kinase, can bind to AlphaScreen® Anti-Phosphotyrosine (PY20) Acceptor beads. Upon excitation of these beads with laser light at 680 nm, singlet oxygen is produced. This singlet oxygen is rapidly quenched, unless the AlphaScreen® Anti-Phosphotyrosine (PY20) Acceptor beads are in close proximity, in which case a proximity signal can be measured at 580 nm. In the presence of catalytic activity, there is a very strong proximity signal. Selective kinase inhibitors affect a decrease in this proximity signal through a decrease in tyrosine phosphorylation of the peptide substrate.
# (§5) The assay was performed as summarized below.
# (§6) Poly (Glu4-Tyr) Peptide, biotin conjugate [Biotin-GG(EEEEY)10EE] (SEQ ID NO: 4)
# (§7) Final concentration=30 nM
# (§8) Adenosine Triphosphate (ATP)
# (§9) Final concentration for IC50 determination=10 μM (FLT3-D835Y or FLT3-ITD) or 100 μM (c-KIT)
# (§10) AlphaScreen® Phosphotyrosine (PY20) Assay Kit
# (§11) Final concentration=10 μg/mL
# (§12) Dilute compounds in DMSO to 20× final concentration.
# (§13) Add 1 μL of compound to each well of 384 well reaction plate (Perkin Elmer #6005359).
# (§14) Mix enzyme and Poly (Glu4-Tyr) Peptide substrate at 1.33× final concentration in assay buffer.
# (§15) Mix ATP at 5× final concentration in assay buffer.
# (§16) Add 15 μL enzyme/substrate mixture to the reaction plate.
# (§17) Add 4 μL of ATP to the reaction plate.
# (§18) Mix Streptavidin Donor beads at 6× final concentration in Stop/Detection buffer.
# (§19) Add 5 μL Streptavidin Donor beads to the reaction plate. Centrifuge 1 minute, shake to mix, and incubate at room temperature for 20 minutes.
# (§20) Mix Anti-Phosphotyrosine (PY20) Acceptor beads at 6× final concentration in Stop/Detection buffer.
# (§21) Add 5 μL Anti-Phosphotyrosine (PY20) beads to the reaction plate.
# (§22) Centrifuge 1 minute, shake to mix, and incubate at room temperature for 60 minutes.
# (§23) Read plate on Wallac EnVision™ 2103 Multilabel Reader.
# FLT3-D835Y = biological target: T4, FLT3-D835Y (Homo sapiens, UniProt P36888, D835Y); assay: FLT3-D835Y recombinant enzyme kinase assay (AlphaScreen); type: biochemical; settings: 8 pt, GMean
# T4 construct: purchased Invitrogen PV3967
# T4 sequence (P36888 27-993 D835Y): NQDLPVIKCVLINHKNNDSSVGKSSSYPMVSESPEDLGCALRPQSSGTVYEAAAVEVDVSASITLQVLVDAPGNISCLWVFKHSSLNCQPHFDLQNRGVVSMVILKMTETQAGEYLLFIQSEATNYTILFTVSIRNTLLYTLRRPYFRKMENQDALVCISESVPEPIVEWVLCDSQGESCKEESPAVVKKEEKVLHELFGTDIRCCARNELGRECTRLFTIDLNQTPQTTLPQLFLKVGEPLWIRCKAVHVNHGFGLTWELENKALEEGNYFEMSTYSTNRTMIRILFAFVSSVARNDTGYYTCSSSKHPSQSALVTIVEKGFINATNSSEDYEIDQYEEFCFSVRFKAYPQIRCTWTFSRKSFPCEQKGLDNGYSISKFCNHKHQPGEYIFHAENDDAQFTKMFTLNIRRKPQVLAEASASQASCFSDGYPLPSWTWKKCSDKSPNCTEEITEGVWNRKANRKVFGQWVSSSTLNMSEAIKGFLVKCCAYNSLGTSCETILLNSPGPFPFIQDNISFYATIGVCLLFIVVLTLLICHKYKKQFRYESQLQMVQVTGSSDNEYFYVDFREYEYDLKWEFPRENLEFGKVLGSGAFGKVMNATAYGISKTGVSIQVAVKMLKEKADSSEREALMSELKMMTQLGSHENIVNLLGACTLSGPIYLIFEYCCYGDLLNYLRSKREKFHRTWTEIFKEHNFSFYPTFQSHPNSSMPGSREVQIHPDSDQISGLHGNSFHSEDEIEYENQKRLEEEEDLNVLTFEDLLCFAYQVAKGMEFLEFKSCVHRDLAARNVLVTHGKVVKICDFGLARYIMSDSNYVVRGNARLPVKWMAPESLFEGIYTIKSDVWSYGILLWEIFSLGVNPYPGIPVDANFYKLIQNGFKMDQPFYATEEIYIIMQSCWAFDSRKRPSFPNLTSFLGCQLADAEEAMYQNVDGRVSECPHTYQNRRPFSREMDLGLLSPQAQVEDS
# Protocol: as §4, §5, §6, §7, §8, §9, §10, §11, §12, §13, §14, §15, §16, §17, §18, §19, §20, §21, §22, §23
# c-KIT = biological target: T5, c-KIT (Homo sapiens, UniProt P10721); assay: c-KIT recombinant enzyme kinase assay (AlphaScreen); type: biochemical; settings: 100 ATP, 8 pt
# T5 construct: purchased Millipore 14-559K
# T5 sequence (P10721 26-976): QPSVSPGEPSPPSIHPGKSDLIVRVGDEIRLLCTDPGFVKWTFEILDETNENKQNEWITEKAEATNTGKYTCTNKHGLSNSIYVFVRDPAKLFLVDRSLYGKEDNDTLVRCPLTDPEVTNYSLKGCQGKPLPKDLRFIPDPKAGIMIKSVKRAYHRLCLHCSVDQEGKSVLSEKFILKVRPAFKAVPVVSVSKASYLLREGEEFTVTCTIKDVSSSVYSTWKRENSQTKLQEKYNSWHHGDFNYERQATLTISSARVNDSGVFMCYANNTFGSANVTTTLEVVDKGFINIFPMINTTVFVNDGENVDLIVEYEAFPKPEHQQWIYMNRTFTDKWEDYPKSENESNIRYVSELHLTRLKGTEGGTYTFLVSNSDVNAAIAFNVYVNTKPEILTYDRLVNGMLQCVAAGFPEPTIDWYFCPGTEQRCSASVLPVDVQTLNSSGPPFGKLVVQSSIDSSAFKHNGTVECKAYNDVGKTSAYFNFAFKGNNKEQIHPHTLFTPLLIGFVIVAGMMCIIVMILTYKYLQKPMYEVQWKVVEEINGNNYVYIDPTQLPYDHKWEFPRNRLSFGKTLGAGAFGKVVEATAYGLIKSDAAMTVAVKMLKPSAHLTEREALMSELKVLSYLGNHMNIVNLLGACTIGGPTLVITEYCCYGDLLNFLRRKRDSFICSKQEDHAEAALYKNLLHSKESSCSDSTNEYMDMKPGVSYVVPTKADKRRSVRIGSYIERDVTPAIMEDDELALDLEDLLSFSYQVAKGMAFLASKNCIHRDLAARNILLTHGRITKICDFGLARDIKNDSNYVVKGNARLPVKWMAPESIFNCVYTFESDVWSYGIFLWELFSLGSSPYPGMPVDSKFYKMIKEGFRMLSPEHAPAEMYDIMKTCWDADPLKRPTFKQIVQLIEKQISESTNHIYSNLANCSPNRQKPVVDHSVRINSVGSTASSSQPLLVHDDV
# Protocol: as §4, §5, §6, §7, §8, §9, §10, §11, §12, §13, §14, §15, §16, §17, §18, §19, §20, §21, §22, §23
SMILES,GI50 (BaF3-FLT3-ITD-F691L) [nM],GI50 (BaF3-FLT3-ITD-D835V) [nM],pIC50 (FLT3-ITD),pIC50 (FLT3-D835Y),pIC50 (c-KIT)
CNc1ccc(-c2ccc(CC(=O)Nc3cc(C(C)(C)C)on3)cc2)cn1,43.2,92,–,–,–
"COc1ncc(NC(=O)Cc2ccc(-c3cnc4[nH]nc(F)c4c3)cc2)cc1C(F)(F)F [Compound P-0245, 2-[4-(3-fluoro-1H-pyrazolo[3,4-b]pyridin-5-yl)phenyl]-N-[6-methoxy-5-(trifluoromethyl)-3-pyridyl]acetamide]",–,–,–,5.00 to 10.00,5.00 to 10.00

# Now from value to compound:
GI50 (BaF3-FLT3-ITD-F691L) [nM],GI50 (BaF3-FLT3-ITD-D835V) [nM],pIC50 (FLT3-ITD),pIC50 (FLT3-D835Y),pIC50 (c-KIT),SMILES
–,–,5.00 to 10.00,5.00 to 10.00,5.00 to 10.00,"COc1ncc(NC(=O)Cc2ccc(-c3cnc(Nc4cn[nH]c4)nc3)c(F)c2)cc1C(F)(F)F [Compound P-0028, 2-[3-fluoro-4-[2-(1H-pyrazol-4-ylamino)pyrimidin-5-yl]phenyl]-N-[6-methoxy-5-(trifluoromethyl)-3-pyridyl]acetamide]"
–,–,5.00 to 10.00,5.00 to 10.00,5.00 to 10.00,"O=C(Cc1ccc(-c2cnc3[nH]c(C4CC4)cc3c2)cc1F)Nc1cncc(C(F)(F)F)c1 [Compound P-0080, 2-(4-(2-cyclopropyl-1H-pyrrolo[2,3-b]pyridin-5-yl)-2-fluorophenyl)-N-(5-(trifluoromethyl)pyridin-3-yl)acetamide]"
–,–,5.00 to 10.00,–,5.00 to 10.00,"Cn1cc(Nc2ncc(-c3ccc(CC(=O)Nc4cc(F)c(F)cn4)cc3)cn2)cn1 [Compound P-0163, N-(4,5-difluoro-2-pyridyl)-2-[4-[2-[(1-methylpyrazol-4-yl)amino]pyrimidin-5-yl]phenyl]acetamide]"
